Source: patent US8476197B2, “Aminopropenoates as fungicides” (priority 2009, dated 2013)
Read-outs that look alike come from different tables or passages of the source. Marks after values point to notes of the source that are not given here.

Row | Compound | Log P (pH 7.5) | Log P (pH 2.7) | Log P (pH 2.3)
1 | CCOC(=O)C(C#N)=C(NC(C)CBr)c1cccnc1Cl (stereo not drawn) [Compound 767] | 2.79 |  | 
2 | COC(=O)C(C#N)=C(NC(C)C1(Cl)CC1)c1cccnc1Cl (stereo not drawn) [Compound 768] |  | 2.72^[a] | 
3 | CCOC(=O)C(C#N)=C(NC(C)C1(Cl)CC1)c1sccc1C(F)(F)F (stereo not drawn) [Compound 769] |  | 4.04^[a] | 
4 | COC(=O)C(C#N)=C(NC(C)C1(Cl)CC1)c1sc(C)nc1C(F)(F)F (stereo not drawn) [Compound 770] |  | 3.53^[a] | 
5 | CCOC(=O)C(C#N)=C(NC(C)C1(Cl)CC1)c1sccc1Br (stereo not drawn) [Compound 771] |  | 3.94^[a] | 
6 | CCOC(=O)C(C#N)=C(NC(C)C1(Cl)CC1)c1sc(C)nc1C(F)(F)F (stereo not drawn) [Compound 772] |  | 3.89^[a] | 
7 | CCOC(=O)C(C#N)=C(NC(C)C1(Cl)CC1)c1ccsc1Br (stereo not drawn) [Compound 774] |  | 3.92^[a] | 
8 | COC(=O)C(C#N)=C(NC(C)(C)C)c1cccnc1Cl [Compound 775] |  | 2.31^[a] | 
9 | CCOC(=O)/C(C#N)=C(\NC(C)(C)C)c1nc(SC)ncc1Br [Compound 776] |  | 3.82^[a] | 
10 | COC(=O)C(C#N)=C(NCC#N)c1sc(C)nc1C(F)(F)F [Compound 787] |  | 2.01^[a] | 
11 | CCOC(=O)C(C#N)=C(NCC#N)c1cn(C)nc1C(F)F [Compound 788] |  | 1.79^[a] | 
12 | CCOC(=O)C(C#N)=C(NCC#N)c1sccc1Br [Compound 789] |  | 2.33^[a] | 
13 | CCOC(=O)C(C#N)=C(NCC#N)c1sc(C)nc1C(F)(F)F [Compound 790] |  | 2.35^[a] | 
14 | CCOC(=O)C(C#N)=C(NCC#N)c1ccsc1Br [Compound 791] |  | 2.32^[a] | 
15 | CCOC(=O)C(C#N)=C(NC(C)CC#N)c1cccnc1Cl (stereo not drawn) [Compound 792] | 2.13 |  | 
16 | COC(=O)C(C#N)=C(NC1CCC1)c1cccnc1Cl [Compound 793] |  | 2.34^[a] | 
17 | CCOC(=O)C(C#N)=C(NC1CCC1)c1nc(Cl)ccc1Cl [Compound 794] |  | 3.58^[a] | 
18 | CCOC(=O)C(C#N)=C(NC1CCC1)c1ncc(Cl)cc1Cl [Compound 795] |  | 3.67^[a] | 
19 | CCOC(=O)C(C#N)=C(NC1CCC1)c1cnc(Cl)cc1Cl [Compound 796] |  | 3.55^[a] | 
20 | CCOC(=O)C(C#N)=C(NC1CCC1)c1cc(Cl)ncc1Cl [Compound 797] |  | 3.55^[a] | 
21 | CCOC(=O)C(C#N)=C(NC1CCC1)c1ccncc1Cl [Compound 798] |  | 2.84^[a] | 
22 | CCOC(=O)C(C#N)=C(NC1CCC1)c1cccnc1C(F)F [Compound 799] |  | 2.76^[a] | 

Row | Compound | Log P (pH 7.5) | Log P (pH 2.7) | Log P (pH 2.3)
23 | CCOC(=O)C(C#N)=C(NC1CCC1)c1cnccc1C(F)(F)F [Compound 800] |  | 3.06^[a] | 
24 | CCOC(=O)C(C#N)=C(NC1CCC1)c1cc(Cl)cc(Cl)n1 [Compound 801] |  | 3.79^[a] | 
25 | CCOC(=O)C(C#N)=C(NC1CCC1)c1ccnc(Cl)c1Cl [Compound 802] |  | 3.52^[a] | 
26 | CCOC(=O)C(C#N)=C(NC1CCC1)c1ccncc1Br [Compound 803] |  | 2.9^[a] | 
27 | CCOC(=O)C(C#N)=C(NC1CCC1)c1ccncc1F [Compound 804] |  | 2.66^[a] | 
28 | CCOC(=O)C(C#N)=C(NC1CCC1)c1ccncc1C(F)(F)F [Compound 805] |  | 3.6^[a] | 
29 | COC(=O)C(C#N)=C(NC(C)C)c1cccnc1Cl [Compound 822] |  | 2.11^[a] | 
30 | CCOC(=O)C(C#N)=C(NC(C)C)c1cccnc1Cl [Compound 823] | 2.53 | 2.66 | 2.54
31 | CCOC(=O)C(C#N)=C(NC(C)CC)c1cc(C)oc1C (stereo not drawn) [Compound 825] |  | 3.63^[a] | 
32 | CCC(C)NC(=C(C#N)C(=O)OC)c1cccnc1Cl (stereo not drawn) [Compound 826] |  | 2.55^[a] | 
33 | CCOC(=O)C(C#N)=C(NC(C)CC)c1sccc1Br (stereo not drawn) [Compound 827] |  | 3.76^[a] | 
34 | CCOC(=O)C(C#N)=C(NC(C)CC)c1sccc1C(F)(F)F (stereo not drawn) [Compound 829] |  | 3.83^[a] | 
35 | CCC(C)NC(=C(C#N)C(=O)OC)c1sc(C)nc1C(F)(F)F (stereo not drawn) [Compound 831] |  | 3.23^[a] | 
36 | CCOC(=O)C(C#N)=C(NC(C)CC)c1cn(C)nc1C(F)F (stereo not drawn) [Compound 833] |  | 2.82^[a] | 
37 | CCOC(=O)C(C#N)=C(NC(C)CC)c1sc(C)nc1C(F)(F)F (stereo not drawn) [Compound 835] |  | 3.59^[a] | 
38 | CCCCCC(C)NC(=C(C#N)C(=O)OCC)c1sccc1Br (stereo not drawn) [Compound 844] |  | 5.03^[a] | 
39 | CCCCCC(C)NC(=C(C#N)C(=O)OCC)c1sccc1C(F)(F)F (stereo not drawn) [Compound 847] |  | 5.05^[a] | 
40 | CCCCCC(C)NC(=C(C#N)C(=O)OC)c1sc(C)nc1C(F)(F)F (stereo not drawn) [Compound 850] |  | 4.41^[a] | 
41 | CCCCCC(C)NC(=C(C#N)C(=O)OCC)c1cn(C)nc1C(F)F (stereo not drawn) [Compound 853] |  | 3.94^[a] | 
42 | CCCCCC(C)NC(=C(C#N)C(=O)OCC)c1sc(C)nc1C(F)(F)F (stereo not drawn) [Compound 856] |  | 4.81^[a] | 
43 | CCCCC[C@H](C)N/C(=C(/C#N)C(=O)OCC)c1ccsc1Br [Compound 861] |  | 4.94^[a] | 
44 | CCCCCC(C)N/C(=C(/C#N)C(=O)OCC)c1ccsc1Br (stereo not drawn) [Compound 862] |  | 4.99^[a] | 

Row | Compound | Log P (pH 7.5) | Log P (pH 2.7) | Log P (pH 2.3)
45 | CCCC(C)NC(=C(C#N)C(=O)OCC)c1cn(C)nc1C(F)F (stereo not drawn) [Compound 864] |  | 3.19^[a] | 
46 | CCCC(C)NC(=C(C#N)C(=O)OCC)c1sccc1C(F)(F)F (stereo not drawn) [Compound 865] |  | 4.21^[a] | 
47 | CCCC(C)NC(=C(C#N)C(=O)OC)c1sc(C)nc1C(F)(F)F (stereo not drawn) [Compound 866] |  | 3.61^[a] | 
48 | CCCC(C)NC(=C(C#N)C(=O)OCC)c1sccc1Br (stereo not drawn) [Compound 867] |  | 4.16^[a] | 
49 | CCCC(C)NC(=C(C#N)C(=O)OCC)c1sc(C)nc1C(F)(F)F (stereo not drawn) [Compound 868] |  | 3.96^[a] | 
50 | COC(=O)C(C#N)=C(NC(C)C#N)c1cccnc1Cl (stereo not drawn) [Compound 869] | 1.86 |  | 1.85
51 | COC(=O)C(C#N)=C(N[C@@H](C)C1CCCCC1)c1cccnc1Cl [Compound 870] | 3.76 |  | 
52 | COC(=O)C(C#N)=C(N[C@H](C)C1CCCCC1)c1cccnc1Cl [Compound 871] | 3.76 |  | 
53 | CCOC(=O)C(C#N)=C(NC(C)C1CCCCC1)c1cn(C)nc1C(F)F (stereo not drawn) [Compound 872] |  | 3.92^[a] | 
54 | CCOC(=O)C(C#N)=C(NC(C)C1CCCCC1)c1sccc1C(F)(F)F (stereo not drawn) [Compound 873] |  | 5.11^[a] | 
55 | COC(=O)C(C#N)=C(NC(C)C1CCCCC1)c1sc(C)nc1C(F)(F)F (stereo not drawn) [Compound 874] |  | 4.46^[a] | 
56 | CCOC(=O)C(C#N)=C(NC(C)C1CCCCC1)c1sccc1Br (stereo not drawn) [Compound 875] |  | 5.11^[a] | 
57 | CCOC(=O)C(C#N)=C(NC(C)C1CCCCC1)c1sc(C)nc1C(F)(F)F (stereo not drawn) [Compound 876] |  | 4.86^[a] | 
58 | CCOC(=O)C(C#N)=C(NC(C)C1CCCCC1)c1ccsc1Br (stereo not drawn) [Compound 877] |  | 5.03^[a] | 
59 | CCOC(=O)C(C#N)=C(NC(C)C1CC1)c1cccnc1Cl (stereo not drawn) [Compound 878] | 2.93 |  | 
60 | CCOC(=O)C(C#N)=C(NC(C)C1CC1)c1cc(C)oc1C (stereo not drawn) [Compound 879] |  | 3.63^[a] | 
61 | COC(=O)C(C#N)=C(NC(C)C1CC1)c1cccnc1Cl (stereo not drawn) [Compound 880] |  | 2.58^[a] | 
62 | CCOC(=O)C(C#N)=C(NC(C)C1CC1)c1ccc(C)nc1Cl (stereo not drawn) [Compound 881] | 3.32 |  | 
63 | CCOC(=O)C(C#N)=C(NC(C)C1CC1)c1cn(C)nc1C(F)F (stereo not drawn) [Compound 882] |  | 2.88^[a] | 
64 | CCOC(=O)C(C#N)=C(NC(C)C1CC1)c1sccc1C(F)(F)F (stereo not drawn) [Compound 883] |  | 3.83^[a] | 
65 | COC(=O)C(C#N)=C(NC(C)C1CC1)c1sc(C)nc1C(F)(F)F (stereo not drawn) [Compound 884] |  | 3.27^[a] | 
66 | CCOC(=O)C(C#N)=C(NC(C)C1CC1)c1sccc1Br (stereo not drawn) [Compound 885] |  | 3.76^[a] | 

Row | Compound | Log P (pH 7.5) | Log P (pH 2.7) | Log P (pH 2.3)
67 | CCOC(=O)C(C#N)=C(NC(C)C1CC1)c1sc(C)nc1C(F)(F)F (stereo not drawn) [Compound 886] |  | 3.61^[a] | 
68 | CCOC(=O)C(C#N)=C(NC(C)C1CC1)c1cc(Cl)sc1Cl (stereo not drawn) [Compound 887] |  | 4.36^[a] | 
69 | CCOC(=O)C(C#N)=C(NC(C)C1CC1)c1nc(Cl)ccc1Cl (stereo not drawn) [Compound 888] |  | 3.73^[a] | 
70 | CCOC(=O)C(C#N)=C(NC(C)C1CC1)c1ncc(Cl)cc1Cl (stereo not drawn) [Compound 889] |  | 3.8^[a] | 
71 | CCOC(=O)C(C#N)=C(NC(C)C1CC1)c1cnc(Cl)cc1Cl (stereo not drawn) [Compound 890] |  | 3.64^[a] | 
72 | CCOC(=O)C(C#N)=C(NC(C)C1CC1)c1cn(C)nc1OC (stereo not drawn) [Compound 891] |  | 2.8^[a] | 
73 | CCOC(=O)C(C#N)=C(NC(C)C1CC1)c1cccnc1C(F)(F)F (stereo not drawn) [Compound 892] |  | 3.35^[a] | 
74 | CCOC(=O)C(C#N)=C(NC(C)C1CC1)c1sc(Cl)nc1Cl (stereo not drawn) [Compound 893] |  | 3.87^[a] | 
75 | CCOC(=O)C(C#N)=C(NC(C)C1CC1)c1cccnc1Cl (stereo not drawn) [Compound 909] |  | 3.1^[a] | 
76 | CCOC(=O)C(C#N)=C(NC(C)C1CC1)c1cccnc1Cl (stereo not drawn) [Compound 910] |  | 3.1^[a] | 
77 | CCOC(=O)C(C#N)=C(NC(C)C(C)(C)C)c1cccnc1Cl (stereo not drawn) [Compound 924] |  | 3.6^[a] | 
78 | CCOC(=O)C(C#N)=C(NC(C)CCCC(C)C)c1cn(C)nc1C(F)F (stereo not drawn) [Compound 925] |  | 4.26^[a] | 
79 | CCOC(=O)C(C#N)=C(NC(C)CCCC(C)C)c1sccc1C(F)(F)F (stereo not drawn) [Compound 926] |  | 5.39^[a] | 
80 | COC(=O)C(C#N)=C(NC(C)CCCC(C)C)c1sc(C)nc1C(F)(F)F (stereo not drawn) [Compound 927] |  | 4.78^[a] | 
81 | CCOC(=O)C(C#N)=C(NC(C)CCCC(C)C)c1sccc1Br (stereo not drawn) [Compound 928] |  | 5.36^[a] | 
82 | CCOC(=O)C(C#N)=C(NC(C)CCCC(C)C)c1sc(C)nc1C(F)(F)F (stereo not drawn) [Compound 929] |  | 5.14^[a] | 
83 | CCOC(=O)C(C#N)=C(NC(C)CCCC(C)C)c1ccsc1Br (stereo not drawn) [Compound 930] |  | 5.32^[a] | 
84 | COC(=O)C(C#N)=C(NC(C)C(C)C)c1cccnc1Cl (stereo not drawn) [Compound 931] | 2.83 | 2.76 | 3
85 | COC(=O)C(C#N)=C(NC(C)C(C)C)c1cccnc1Cl (stereo not drawn) [Compound 932] | 2.85 |  | 
86 | CCOC(=O)C(C#N)=C(NC(C)C(C)C)c1cn(C)nc1C(F)F (stereo not drawn) [Compound 933] |  | 3.13^[a] | 
87 | CCOC(=O)C(C#N)=C(NC(C)C(C)C)c1cccnc1Cl (stereo not drawn) [Compound 934] | 3.21 |  | 
88 | CCOC(=O)C(C#N)=C(NC(C)C(C)C)c1ncc(C(F)(F)F)cc1Cl (stereo not drawn) [Compound 935] |  | 4.29^[a] | 
